Here are results for two compounds from patent publication US8741849B2, “Kinase inhibitors and uses thereof” (priority 2007, dated 2014).

For one experiment, the system named is HT29 colon cancer cells. The experiment in a line: Toxicity testing on cancer cell lines (MTT). The format is cell-based. Conditions: 72 hours, n=4, read-out: Cell Line IC50, HT29. The protocol:
(§1) The seven cell lines were: estrogen dependent MCF-7 breast cancer cells, non estrogen dependent MDA 231 breast cancer cells, SF 539 central nervous system cancer cells, HT29 colon cancer cells, Paca 2 pancreatic cancer cells, PC3 prostate cancer cells, and A549 lung cancer cells. For each cell line, exponentially growing cells were trypsinized and seeded into individual wells of a 96-well plate. Cells were maintained in a humidified, 5% CO2 incubator at 37° C. for 24 hours. The next day, fresh media was added along with 1 μl of a stock solution of peptide to give final peptide concentrations of 0.3 μM, 1 μM, 3 μM, 10 μM, 30 μM, and 100 μM (n=4). Doxorubicin was tested as a positive control. After incubating the cells for 72 hours, to each well was added 20 μl of 0.5% MTT {3-([…])-2,5 diphenyl tetrazolium bromide} solution. The plates then were incubated for an additional 4 hours, at which time the absorbance at 570 nm was measured for each well using a microplate reader. The absorbance was plotted as function of peptide concentration, and IC50 values were calculated for each peptide for each cell line.

Experiment [1] has as its system Paca 2 pancreatic cancer cells. In words: Toxicity testing on cancer cell lines (MTT). The format is cell-based. Conditions: 72 hours, n=4, read-out: Cell Line IC50, Paca 2. Here is the method:
as §1

In another experiment the test system is A549 lung cancer cells. The experiment in a line: Toxicity testing on cancer cell lines (MTT). Conditions: 72 hours, n=4, read-out: Cell Line IC50, A549. The class given is cell-based. Here is the method:
as §1

The subject of experiment [2] is PC3 prostate cancer cells. The experiment in a line: Toxicity testing on cancer cell lines (MTT). The format is cell-based. Conditions: 72 hours, n=4, read-out: Cell Line IC50, PC3. The protocol:
as §1

For experiment [3], the system named is estrogen dependent MCF-7 breast cancer cells. The experiment in a line: Toxicity testing on cancer cell lines (MTT). The format is cell-based. Conditions: 72 hours, n=4, read-out: Cell Line IC50, MCF-7. The protocol:
as §1

The subject of experiment [4] is non estrogen dependent MDA 231 breast cancer cells. The experiment in a line: Toxicity testing on cancer cell lines (MTT). The class given is cell-based. Conditions: 72 hours, n=4, read-out: Cell Line IC50, MDA 231. The protocol: as §1
Experiment [5] concerns SF 539 central nervous system cancer cells. The experiment in a line: Toxicity testing on cancer cell lines (MTT). The class given is cell-based. Conditions: 72 hours, n=4, read-out: Cell Line IC50, SF 539. Here is the method: as §1
The test system of experiment [6] is MCF-7 breast cancer cells. The experiment in a line: Evaluation of apoptosis (Hoescht, Annexin V, propidium iodide staining). The format is cell-based. Conditions: MCF-7 cells, 24 hours, 3 μM or 10 μM. The protocol: MCF-7 breast cancer cells were seeded in individual wells of a 96-well plate and were maintained for 24 hours in a humidified, 5% CO2 incubator at 37° C. The next day, fresh media was added along with 1 μl of a stock solution of KIP peptide […] [SEQ ID NO: 166] to give a final concentration of 3 μM or 10 μM (n=4). After incubating the cells for 24 hours, cells were treated with Hoescht dye for nuclear staining, propidium iodide to stain for DNA from necrotic cells, and Annexin V to visualize apoptotic cells.

The next experiment addresses T1, PKG1α (h) (Homo sapiens, UniProt Q13976).
T1 construct: purchased Upstate (Millipore) KinaseProfiler service
T1 sequence (Q13976 1-671): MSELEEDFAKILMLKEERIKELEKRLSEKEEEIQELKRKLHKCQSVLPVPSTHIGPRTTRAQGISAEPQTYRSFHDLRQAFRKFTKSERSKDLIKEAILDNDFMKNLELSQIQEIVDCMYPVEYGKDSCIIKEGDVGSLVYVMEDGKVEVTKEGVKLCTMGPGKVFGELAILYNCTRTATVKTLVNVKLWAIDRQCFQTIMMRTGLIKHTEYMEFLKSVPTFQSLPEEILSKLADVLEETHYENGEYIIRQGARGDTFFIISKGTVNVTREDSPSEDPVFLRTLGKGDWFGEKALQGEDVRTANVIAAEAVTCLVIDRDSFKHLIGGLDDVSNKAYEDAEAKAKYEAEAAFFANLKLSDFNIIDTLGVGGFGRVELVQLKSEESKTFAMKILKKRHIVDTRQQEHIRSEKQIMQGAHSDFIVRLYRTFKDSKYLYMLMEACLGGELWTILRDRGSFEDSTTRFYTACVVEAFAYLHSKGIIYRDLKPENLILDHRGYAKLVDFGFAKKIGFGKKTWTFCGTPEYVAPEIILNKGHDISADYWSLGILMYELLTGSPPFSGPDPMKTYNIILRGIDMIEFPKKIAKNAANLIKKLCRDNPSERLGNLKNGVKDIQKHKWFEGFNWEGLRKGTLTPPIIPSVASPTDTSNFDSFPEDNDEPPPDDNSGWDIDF
In words: kinase profiler assay (radiometric). The format is biochemical. Conditions: @ = 30 μm peptide; less than 100 = kinase inhibition, greater than 100 = stimulation. The source says:
(§2) KIP peptides […] [SEQ ID NO: 142], […] [SEQ ID NO: 173], and […] [SEQ ID NO: 163] were utilized to profile a variety of different kinases. The kinase profiler assay services provided by Upstate, a part of Millipore Corporation (Billerica, Mass.), were utilized to conduct the kinase profiles. The kinase profiler assays, which are radiometric, are based on measuring the amount of radioactive transfer from an ATP (y-^33P-ATP) to a substrate peptide using known concentrations of kinase enzyme, inhibitor, ATP, and buffer at defined time points and temperatures. Details on the reaction conditions for each kinase are available at www.millipore.com/drugdiscovery/dd3/KinaseProfiler. […] ROCK-1(h) (5-10 mU) was incubated with 8 mM MOPS pH 7.0, 0.2 mM EDTA, 30 i.IM of the peptide […] [SEQ ID NO: 189], 10 mM Mg acetate and y-^33P-ATP (specific activity approximately 500 cpm/pmol, concentration as required) in a final reaction volume of 25 pl. The reaction was initiated by the addition of the MgATP mixture in the absence and presence of inhibitor compounds. After incubation for 40 minutes at room temperature, the reaction was stopped by the addition of 5) 11 of a 3% phosphoric acid solution. 10 pl of the reaction mixture then was spotted onto a P30 filtermat. The filtermat was washed three times for 5 minutes in 75 mM phosphoric acid, once in methanol, dried and counted by scintillation counting. Where the kinase is uninhibited, the kinase phosphorylates a positively charged substrate with radioactive ATP, which then binds to a negatively charged filter membrane. Scintillation counts (radioactivity) directly correlate with kinase activity. […] All profile data less than 100 indicate kinase inhibition while data greater than 100 indicate kinase stimulation.

The target in a further experiment is T2, PKC β 1 (h) (Homo sapiens, UniProt P05771).
T2 construct: purchased Upstate (Millipore) KinaseProfiler service
T2 sequence (P05771 whole entry): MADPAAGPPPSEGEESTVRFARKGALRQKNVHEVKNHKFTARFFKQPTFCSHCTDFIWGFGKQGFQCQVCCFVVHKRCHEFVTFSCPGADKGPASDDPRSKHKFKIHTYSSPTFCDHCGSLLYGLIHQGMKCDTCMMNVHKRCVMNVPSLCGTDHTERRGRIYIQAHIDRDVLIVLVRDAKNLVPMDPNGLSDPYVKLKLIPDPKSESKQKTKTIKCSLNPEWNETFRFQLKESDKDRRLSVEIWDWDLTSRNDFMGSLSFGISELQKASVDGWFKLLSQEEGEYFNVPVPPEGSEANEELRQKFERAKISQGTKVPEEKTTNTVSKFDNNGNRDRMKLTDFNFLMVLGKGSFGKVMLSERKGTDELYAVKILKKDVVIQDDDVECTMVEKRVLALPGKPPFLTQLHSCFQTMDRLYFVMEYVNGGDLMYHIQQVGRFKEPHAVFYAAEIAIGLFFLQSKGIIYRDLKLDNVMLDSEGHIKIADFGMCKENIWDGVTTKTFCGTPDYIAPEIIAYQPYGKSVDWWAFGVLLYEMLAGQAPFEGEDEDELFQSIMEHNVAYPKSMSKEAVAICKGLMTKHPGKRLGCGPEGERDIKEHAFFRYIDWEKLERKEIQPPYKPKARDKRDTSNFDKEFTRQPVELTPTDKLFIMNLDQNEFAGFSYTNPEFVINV
The experiment in a line: kinase profiler assay (radiometric). The class given is biochemical. Conditions: @ = 30 μm peptide; less than 100 = kinase inhibition, greater than 100 = stimulation.
Text: as §2

For `CC[C@H](C)[C@H](NC(=O)[C@H](CCCCN)NC(=O)[C@H](CCCCN)NC(=O)[C@H](CC(C)C)NC(=O)[C@H](Cc1c[nH]c2ccccc12)NC(=O)[C@H](C)NC(=O)[C@H](CCCCN)NC(=O)[C@@H](NC(=O)[C@H](CCCNC(=N)N)NC(=O)[C@H](CCCNC(=N)N)NC(=O)[C@@H](N)Cc1c[nH]cn1)[C@@H](C)CC)C(=O)N[C@@H](CCCCN)C(=O)N[C@@H](C)C(=O)N[C@@H](CC(C)C)C(=O)N[C@@H](C)C(=O)N[C@@H](CCCNC(=N)N)C(=O)N[C@@H](CCC(N)=O)C(=O)N[C@@H](CC(C)C)C(=O)NCC(=O)N[C@H](C(=O)N[C@@H](C)C(=O)N[C@@H](C)C(=O)O)C(C)C` [Peptide 1], the 50% inhibitory concentration (IC50) came to 6.7 µM in the experiment on HT29 colon cancer cells; 9 µM in experiment [1]; 8.7 µM with A549 lung cancer cells; 6 µM in experiment [2]; 1600 nM in [3]; 9.3 µM in [4]. Further, the IC50 in [5] came out at 4.3 µM. Also, the “Annexin V staining relative to propidium iodide staining (apoptosis)” value in [6] is “annexin V staining was much more intense than propidium iodide staining”.

WLRRIKAWLRRIKALNRQLGVAA: in the experiment with PKG1α (h), the “Profile-1, PKG1α (h)” value is given as 16. For the same compound, the “Profile-1, PKC β 1 (h)” value with PKC β 1 (h) is 8.

By IC50 is commonly meant the concentration at which inhibition is half-maximal.
